Laboratory results from ChEMBL document CHEMBL1201862, “PubChem BioAssay data set” (2004).
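Each compound was tested at five concentrations against cells in 96-well plates for 48 hours. The concentration for 50% growth inhibition is given as GI50.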 Calls of active or inactive are those of the source. Cut-off read from the data, not from the text of the source: active = GI50 up to about 1.1 µM and inactive = higher.

How the values were obtained:
Assay in all cases: DTP human tumour cell line panel, 48 h
K562 = tested on: K562
UACC-62 = tested on: UACC-62
A498 = tested on: A498
OVCAR-4 = tested on: OVCAR-4
SF-295 = tested on: SF-295
786-0 = tested on: 786-0
NCI-H460 = tested on: NCI-H460
OVCAR-3 = tested on: OVCAR-3
IGROV-1 = tested on: IGROV-1
DMS-273 = tested on: DMS-273
LOX IMVI = tested on: LOX IMVI
SK-MEL-28 = tested on: SK-MEL-28
HOP-92 = tested on: HOP-92
HCT-15 = tested on: HCT-15
KM12 = tested on: KM12
SK-MEL-5 = tested on: SK-MEL-5
MOLT-4 = tested on: MOLT-4
OVCAR-8 = tested on: OVCAR-8
DU-145 = tested on: DU-145
MDA-MB-231 = tested on: MDA-MB-231

Structure (SMILES) | GI50 (K562) | GI50 (UACC-62) | GI50 (A498) | GI50 (OVCAR-4) | GI50 (SF-295) | GI50 (786-0) | GI50 (NCI-H460) | GI50 (OVCAR-3) | GI50 (IGROV-1) | GI50 (DMS-273) | GI50 (LOX IMVI) | GI50 (SK-MEL-28) | GI50 (HOP-92) | GI50 (HCT-15) [µM] | GI50 (KM12) | GI50 (SK-MEL-5) | GI50 (MOLT-4) | GI50 (OVCAR-8) | GI50 (DU-145) | GI50 (MDA-MB-231)
CCOc1ccc2c(c1)[n+]([O-])c(-c1nc3ccccc3s1)c(N)[n+]2[O-] | 61.9 µM (inactive) | 64.7 µM (inactive) | 61.8 µM (inactive) | 65.5 µM (inactive) | 50 µM (inactive) | 48.4 µM (inactive) | 58.7 µM (inactive) | 38.4 µM (inactive) | 75.9 µM (inactive) | 52.6 µM (inactive) | 64 µM (inactive) | 38.7 µM (inactive) | 26.2 µM (inactive) | 49.5 | 60.7 µM (inactive) | 30.3 µM (inactive) | 36.7 µM (inactive) | 75.2 µM (inactive) | – | –
Oc1nc(CC(O)c2ccc(Cl)c(Cl)c2)cc(-c2ccccc2)n1 (stereo not given) | 51.3 µM (inactive) | 45.5 µM (inactive) | 32.7 µM (inactive) | 68.4 µM (inactive) | 53.7 µM (inactive) | > 100 µM (inactive) | 94.8 µM (inactive) | 48.8 µM (inactive) | > 100 µM (inactive) | > 100 µM (inactive) | > 100 µM (inactive) | > 100 µM (inactive) | 82.8 µM (inactive) | 89.1 | 69.3 µM (inactive) | 37.8 µM (inactive) | 75.3 µM (inactive) | > 100 µM (inactive) | – | –
Cc1cccc(NC(=O)C(=O)C2C(=O)NC(=O)NC2=O)c1C | > 100 µM (inactive) | > 100 µM (inactive) | > 100 µM (inactive) | > 100 µM (inactive) | > 100 µM (inactive) | > 100 µM (inactive) | > 100 µM (inactive) | > 100 µM (inactive) | > 100 µM (inactive) | > 100 µM (inactive) | > 100 µM (inactive) | > 100 µM (inactive) | > 100 µM (inactive) | > 100 | > 100 µM (inactive) | > 100 µM (inactive) | > 100 µM (inactive) | > 100 µM (inactive) | – | –
Cc1ccc(C2[C@H]3C(=O)N(c4ccc(Cc5ccc(N6C(=O)[C@@H]7ON(c8ccccc8)C(c8ccc(C)cc8)[C@@H]7C6=O)cc5)cc4)C(=O)[C@H]3ON2c2ccccc2)cc1 (stereo not given in full) | > 100 µM (inactive) | > 100 µM (inactive) | > 100 µM (inactive) | > 100 µM (inactive) | > 100 µM (inactive) | > 100 µM (inactive) | > 100 µM (inactive) | > 100 µM (inactive) | > 100 µM (inactive) | > 100 µM (inactive) | > 100 µM (inactive) | > 100 µM (inactive) | > 100 µM (inactive) | > 100 | > 100 µM (inactive) | > 100 µM (inactive) | > 100 µM (inactive) | – | – | –
c1cc2c(ncc3cscc32)s1 | > 100 µM (inactive) | > 31.6 µM (inactive) | 51.1 µM (inactive) | > 100 µM (inactive) | > 100 µM (inactive) | > 100 µM (inactive) | > 100 µM (inactive) | > 100 µM (inactive) | > 31.6 µM (inactive) | > 100 µM (inactive) | > 49.5 µM (inactive) | > 100 µM (inactive) | > 100 µM (inactive) | > 100 | > 100 µM (inactive) | > 100 µM (inactive) | > 100 µM (inactive) | > 100 µM (inactive) | > 100 µM (inactive) | > 100 µM (inactive)
CCOC(=O)CCC(NC(=O)c1ccc(NCc2ccc3nc(-c4ccccc4)c(Cl)nc3c2)cc1)C(=O)OCC (stereo not given) | 6.19 µM (inactive) | – | 24.5 µM (inactive) | 20.9 µM (inactive) | 76.2 µM (inactive) | 80.7 µM (inactive) | 27.7 µM (inactive) | 17.2 µM (inactive) | 27.9 µM (inactive) | 21.4 µM (inactive) | 26.1 µM (inactive) | > 10 µM (inactive) | 9.95 µM (inactive) | 64.1 | > 100 µM (inactive) | 11.3 µM (inactive) | 9.25 µM (inactive) | – | – | –
NC(=O)C(=O)N/N=C(\CC1(O)C(=O)Nc2ccccc21)c1ccc2ccccc2c1 (stereo not given) | 23.1 µM (inactive) | 19.8 µM (inactive) | 17.9 µM (inactive) | 37.1 µM (inactive) | 37.9 µM (inactive) | 36.5 µM (inactive) | 34 µM (inactive) | 25.8 µM (inactive) | 40.5 µM (inactive) | 28.2 µM (inactive) | 30.3 µM (inactive) | 26.9 µM (inactive) | 39 µM (inactive) | 24.5 | 21.7 µM (inactive) | 32.3 µM (inactive) | 20.9 µM (inactive) | 56 µM (inactive) | – | –
O=C1c2ccccc2C(=O)N1CCN(CCN1C(=O)c2ccccc2C1=O)Cn1cccn1 | 33.4 µM (inactive) | 28.2 µM (inactive) | > 100 µM (inactive) | > 100 µM (inactive) | > 100 µM (inactive) | > 100 µM (inactive) | 84.3 µM (inactive) | > 100 µM (inactive) | – | 46.1 µM (inactive) | > 100 µM (inactive) | 73.8 µM (inactive) | > 100 µM (inactive) | > 100 | > 100 µM (inactive) | > 100 µM (inactive) | > 100 µM (inactive) | > 100 µM (inactive) | – | –
CCc1c(-c2coc(CC/C(C)=C/c3ccccc3)n2)oc(OC)c(C)c1=O | 0.122 µM (active) | 17.6 µM (inactive) | 99.8 µM (inactive) | > 39 µM (inactive) | 1.77 µM (inactive) | 18.1 µM (inactive) | 18.7 µM (inactive) | 45.2 µM (inactive) | > 83.8 µM (inactive) | 10.1 µM (inactive) | 15.1 µM (inactive) | > 100 µM (inactive) | 34.6 µM (inactive) | 18.7 | 78.9 µM (inactive) | 4.12 µM (inactive) | 10.9 µM (inactive) | 19.9 µM (inactive) | – | –
NC(=O)c1[nH]nc(C2OC(CO)C(O)C2O)c1O (stereo not given) | 0.5 µM (active) | 4.38 µM (inactive) | 60.5 µM (inactive) | 24.7 µM (inactive) | 0.851 µM (active) | 0.5 µM (active) | 0.573 µM (active) | 19.6 µM (inactive) | 0.776 µM (active) | 0.713 µM (active) | 0.504 µM (active) | 328 µM (inactive) | 30.5 µM (inactive) | 0.5 | 10.4 µM (inactive) | 64.3 µM (inactive) | 0.561 µM (active) | 0.5 µM (active) | 0.5 µM (active) | 8.59 µM (inactive)
